Measurements as given in the supplement of paper PMC10307832.

Tests used:
Experiment in all cases: relative viability (nuclei count vs DMSO), 5 days (fraction); higher = more cells survive
[1] = compound: CC1CC(=O)N(C2=CN=C(N=C2N1C3CCCC3)NC4=C(C=C(C=C4)C(=O)NC5CCN(CC5)C)OC)C [NPK76-II-72-1] + CC(=O)c1c(C)c2cnc(Nc3ccc(N4CCNCC4)cn3)nc2n(C2CCCC2)c1=O [Palbociclib] (partner 0.5 µM)
Summary of the method: (§1)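 Medians of duplicate plates are given as relative viability. That measure is the nuclei count in treated wells divided by the count in vehicle wells. Counts were taken on 4× images of lung cancer cell lines in 1536-well plates, 5 days after pin-tool dosing the day after seeding with one drug alone or a fixed anchor-drug dose plus five library-drug doses (not always all listed) in √10 steps.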

[2] = compound: CC1CC(=O)N(C2=CN=C(N=C2N1C3CCCC3)NC4=C(C=C(C=C4)C(=O)NC5CCN(CC5)C)OC)C [NPK76-II-72-1] + Cc1nc(NC(=O)N2CCC[C@H]2C(N)=O)sc1-c1ccnc(C(C)(C)C(F)(F)F)c1 [Alpelisib] (partner 2 µM)
Summary of the method: as §1

[3] = compound: CC[C@@H]1C(=O)N(C)c2cnc(Nc3ccc(C(=O)NC4CCN(C)CC4)cc3OC)nc2N1C1CCCC1 [BI-2536] + CS(=O)(=O)N1CCN(Cc2cc3nc(-c4cccc5[nH]ncc45)nc(N4CCOCC4)c3s2)CC1 [Pictilisib] (partner 1 µM)
Summary of the method: as §1

[4] = compound: CC[C@@H]1C(=O)N(C)c2cnc(Nc3ccc(C(=O)NC4CCN(C)CC4)cc3OC)nc2N1C1CCCC1 [BI-2536] + Nc1nc2[nH]cc(CCc3ccc(C(=O)N[C@@H](CCC(=O)O)C(=O)O)cc3)c2c(=O)[nH]1 [Pemetrexed] (partner 0.2 µM)
Summary of the method: as §1

Cell Line | relative viability ([1]; first compound 0.01 µM) | relative viability ([1]; first compound 0.03162 µM) | relative viability ([1]; first compound 0.1 µM) | relative viability ([1]; first compound 0.3162 µM) | relative viability ([1]; first compound 1 µM) | relative viability ([2]; first compound 0.01 µM) | relative viability ([2]; first compound 0.03162 µM) | relative viability ([2]; first compound 0.1 µM) | relative viability ([2]; first compound 0.3162 µM) | relative viability ([2]; first compound 1 µM) | relative viability ([3]; first compound 0.01 µM) | relative viability ([3]; first compound 0.03162 µM) | relative viability ([3]; first compound 0.1 µM) | relative viability ([3]; first compound 0.3162 µM) | relative viability ([3]; first compound 1 µM) | relative viability ([4]; first compound 0.01 µM) | relative viability ([4]; first compound 0.03162 µM) | relative viability ([4]; first compound 0.1 µM) | relative viability ([4]; first compound 0.3162 µM) | relative viability ([4]; first compound 1 µM)
RERF-LC-KJ | 0.906 | 1.12 | 1.06 | 1.08 | 1.18 | 0.727 | 0.928 | 0.773 | 0.683 | 0.86 | 0.565 | 0.48 | 0.249 | 0.145 | 0.206 | 0.46 | 0.46 | 0.31 | 0.186 | 0.213
A-427 | 0.494 | 0.537 | 0.529 | 0.532 | 0.565 | 1.08 | 1.1 | 1.02 | 1.09 | 1.03 | 0.776 | 0.707 | 0.606 | 0.0766 | 0.122 | 1.01 | 1.07 | 0.504 | 0.198 | 0.196
NCI-H441 | 0.232 | 0.26 | 0.251 | 0.205 | 0.254 | 0.536 | 0.648 | 0.866 | 0.767 | 0.901 | 0.464 | 0.211 | 0.138 | 0.17 | 0.117 | 0.287 | 0.242 | 0.195 | 0.148 | 0.13
NCI-H1703 |  |  |  |  |  | 0.316 | 0.343 | 0.35 | 0.314 | 0.4 | 0.244 | 0.239 | 0.137 | 0.174 | 0.131 |  |  |  |  | 
NCI-H1792 | 0.698 |  | 0.672 | 0.662 | 0.68 | 0.747 | 0.793 | 0.668 | 0.711 | 0.767 | 0.307 | 0.354 | 0.207 | 0.111 | 0.0623 | 0.779 | 0.792 | 0.328 | 0.0539 | 0.0316
Calu-6 |  |  |  |  |  | 0.952 | 1.03 | 1.05 | 0.972 | 1.14 | 0.894 | 0.396 | 0.107 | 0.0926 | 0.0965 |  |  |  |  | 
SK-LU-1 | 0.374 | 0.374 | 0.371 | 0.35 | 0.417 | 1.04 | 1.03 | 0.945 | 1.01 | 1.18 | 0.499 | 0.62 | 0.42 | 0.201 | 0.157 | 0.94 | 0.938 | 0.392 | 0.265 | 0.243
PC-3 [JPC-3] | 0.562 |  | 0.519 | 0.549 | 0.597 | 1.01 | 0.949 | 0.987 | 0.985 | 1.09 | 0.682 | 0.769 | 0.441 | 0.268 | 0.291 | 1.23 | 1.04 | 0.319 | 0.299 | 0.24
EMC-BAC-2 | 0.54 | 0.561 | 0.476 | 0.516 | 0.538 | 0.723 | 0.764 | 0.786 | 0.668 | 0.774 | 0.502 | 0.559 | 0.305 | 0.162 | 0.163 | 0.44 | 0.429 | 0.367 | 0.309 | 0.285
